In this experiment the target is T1, wild-type HIV-1 protease (Human immunodeficiency virus type 1 group M subtype B, UniProt P04585).
T1 construct: Escherichia coli expressed wild-type HIV-1 protease protein
In words: Assay for Inhibition of Microbial Expressed HIV Protease (peptide substrate cleavage, LC-MS/MS readout). The experiment is classed as biochemical. As to conditions: E. coli expressed wild-type HIV-1 protease, mean of at least two independent experiments, read-out: HIV Pr Enzyme HIV1 PR IC50. Summed up:
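Cleavage of Val-Ser-Gln-Asn-(β-naphthyl)Ala-Pro-Ile-Val (400 μM) by recombinant HIV-1 protease ([…]) ran 1 h at 30 °C after a 30 min room-temperature inhibitor preincubation in 50 mM sodium acetate pH 5.5. Product peak areas by LC-MS/MS gave inhibition; values average at least two independent runs.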

For the compound `N=C1NC(c2ccccc2)(c2ccccc2)C(=O)N1Cc1ccc(F)c(C(=O)N2Cc3cncnc3C2)c1` [Compound 385, 3-[3-(5,7-dihydro-6H-pyrrolo[3,4-d]pyrimidin-6-ylcarbonyl)-4-fluorobenzyl]-2-imino-5,5-diphenylimidazolidin-4-one], the IC50 turned out to be 25.8 nM.
The same measure for `N=C1NC(c2ccccc2)(c2ccccc2)C(=O)N1Cc1ccc(F)c(C(=O)N2Cc3cccnc3C2)c1` [Compound 386, 3-[3-(5,7-dihydro-6H-pyrrolo[3,4-b]pyridin-6-ylcarbonyl)-4-fluorobenzyl]-2-imino-5,5-diphenylimidazolidin-4-one]: 28.2 nM.
`COc1ccc(CN2C(=N)NC(c3ccccc3)(c3ccccc3)C2=O)cc1C(=O)N1Cc2cncnc2C1` [Compound 387, 3-[3-(5,7-dihydro-6H-pyrrolo[3,4-d]pyrimidin-6-ylcarbonyl)-4-methoxybenzyl]-2-imino-5,5-diphenylimidazolidin-4-one]: the IC50 is 32.2 nM.
The same measure for `COc1ccc(CN2C(=N)NC(c3ccc(Cl)cc3)(c3ccc(Cl)cc3)C2=O)cc1C(=O)N1Cc2ccccc2C1` [Compound 388, 5,5-bis(4-chlorophenyl)-3-[3-(1,3-dihydro-2H-isoindol-2-ylcarbonyl)-4-methoxybenzyl]-2-iminoimidazolidin-4-one]: 54.3 nM; for `N=C1NC(c2ccc(F)cc2)(c2ccc(F)cc2)C(=O)N1Cc1ccc(Cl)c(C(=O)N2CCC(F)(F)C2)c1` [Compound 389, 3-{4-chloro-3-[(3,3-difluoropyrrolidin-1-yl)carbonyl]benzyl}-5,5-bis(4-fluorophenyl)-2-iminoimidazolidin-4-one]: 98.5 nM.
Regarding `CC(C)C[C@]1(c2ccccc2)NC(=N)N(Cc2cnc(C(F)(F)F)c(C(=O)N3Cc4nccnc4C3)c2)C1=O` [Compound 390, (5R)-3-{[5-(5,7-dihydro-6H-pyrrolo[3,4-b]pyrazin-6-ylcarbonyl)-6-(trifluoromethyl)pyridin-3-yl]methyl}-2-imino-5-(2-methylpropyl)-5-phenylimidazolidin-4-one], the half-inhibitory concentration (IC50) worked out at 8.45 nM.
The same measure for `N=C1NC(c2ccc(F)cc2)(c2ccc(F)cc2)C(=O)N1Cc1cncc(C(=O)N2CCN(C(=O)OCCOCc3ccccc3)CC2)c1` [Compound 391, 2-(benzyloxy)ethyl 4-[(5-{[4,4-bis(4-fluorophenyl)-2-imino-5-oxoimidazolidin-1-yl]methyl}pyridin-3-yl)carbonyl]piperazine-1-carboxylate]: 13.6 nM.
With `N=C1NC(c2ccc(F)cc2)(c2ccc(F)cc2)C(=O)N1Cc1cncc(C(=O)N2CCC(n3c(=O)[nH]c4ccccc43)CC2)c1` [Compound 392, 1-{1-[(5-{[4,4-bis(4-fluorophenyl)-2-imino-5-oxoimidazolidin-1-yl]methyl}pyridin-3-yl)carbonyl]piperidin-4-yl}-1,3-dihydro-2H-benzimidazol-2-one], the half-inhibitory concentration (IC50) worked out at 61.7 nM.
`N#Cc1ncc2c(n1)CN(C(=O)c1cncc(CN3C(=N)NC(c4ccc(F)cc4)(c4ccc(F)cc4)C3=O)c1)C2` [Compound 393, 6-[(5-{[4,4-bis(4-fluorophenyl)-2-imino-5-oxoimidazolidin-1-yl]methyl}pyridin-3-yl)carbonyl]-6,7-dihydro-5H-pyrrolo[3,4-d]pyrimidine-2-carbonitrile]: the IC50 was 67.1 nM.
Consider `N=C1NC(c2ccc(F)cc2)(c2ccc(F)cc2)C(=O)N1Cc1cncc(C(=O)N2Cc3ccccc3C2)c1` [Compound 394, 3-{[5-(1,3-dihydro-2H-isoindol-2-ylcarbonyl)pyridin-3-yl]methyl}-5,5-bis(4-fluorophenyl)-2-iminoimidazolidin-4-one], for which the IC50 stood at 93.1 nM.
For the compound `N=C1NC(c2ccc(F)cc2)(c2ccc(F)cc2)C(=O)N1Cc1cncc(C(=O)N2CCN(C(=O)OCc3ccccc3)CC2)c1` [Compound 395, benzyl 4-[(5-{[4,4-bis(4-fluorophenyl)-2-imino-5-oxoimidazolidin-1-yl]methyl}pyridin-3-yl)carbonyllpiperazine-1-carboxylate], the IC50 amounted to 97.4 nM.
The same measure for `N=C1NC(c2ccccc2)(c2ccccc2)C(=O)N1Cc1cc(C(=O)N2Cc3ccccc3C2)ccn1` [Compound 396, 3-{[4-(1,3-dihydro-2H-isoindol-2-ylcarbonyl)pyridin-2-yl]methyl}-2-imino-5,5-diphenylimidazolidin-4-one]: 16.7 nM; for `N#Cc1ncc2c(n1)CN(C(=O)c1ccnc(CN3C(=N)NC(c4ccccc4)(c4ccccc4)C3=O)c1)C2` [Compound 397, 6-({2-[(2-imino-5-oxo-4,4-diphenylimidazolidin-1-yl)methyl]pyridin-4-yl}carbonyl)-6,7-dihydro-5H-pyrrolo[3,4-d]pyrimidine-2-carbonitrile]: 18.1 nM.
The result for `N=C1NC(c2ccc(F)cc2)(c2ccc(F)cc2)C(=O)N1Cc1cc(C(=O)N2Cc3ccccc3C2)ccn1` [Compound 398, 3-{[4-(1,3-dihydro-2H-isoindol-2-ylcarbonyl)pyridin-2-yl]methyl}-5,5-bis(4-fluorophenyl)-2-iminoimidazolidin-4-one] reads 19.2 nM; that for `N=C1NC(c2ccccc2)(c2ccccc2)C(=O)N1Cc1cc(C(=O)N2Cc3nccnc3C2)ccn1` [Compound 399, 3-{[4-(5,7-dihydro-6H-pyrrolo[3,4-b]pyrazin-6-ylcarbonyl)pyridin-2-yl]methyl}-2-imino-5,5-diphenylimidazolidin-4-one], 20.4 nM; that for `CC(C)CCC1(c2ccccc2)NC(=N)N(Cc2cc(C(=O)N3Cc4nccnc4C3)ccn2)C1=O` (stereo not drawn) [Compound 400, 3-{[4-(5,7-dihydro-6H-pyrrolo[3,4-b]pyrazin-6-ylcarbonyl)pyridin-2-yl]methyl}-2-imino-5-(3-methylbutyl)-5-phenylimidazolidin-4-one], 25.6 nM.
In the case of `N=C1NC(c2ccccc2)(c2ccccc2)C(=O)N1Cc1cc(C(=O)N2Cc3cncnc3C2)ccn1` [Compound 401, 3-{[4-(5,7-dihydro-6H-pyrrolo[3,4-d]pyrimidin-6-ylcarbonyl)pyridin-2-yl]methyl}-2-imino-5,5-diphenylimidazolidin-4-one], the concentration for half-maximal inhibition (IC50) turned out to be 31.4 nM.
As for `N=C1NC(c2ccc(F)cc2)(c2ccc(F)cc2)C(=O)N1Cc1cc(C(=O)N2Cc3nccnc3C2)ccn1` [Compound 402, 3-{[4-(5,7-dihydro-6H-pyrrolo[3,4-b]pyrazin-6-ylcarbonvl)pyridin-2-yl]methyl}-5,5-bis(4-fluorophenyl)-2-iminoimidazolidin-4-one], the 50% inhibitory concentration (IC50) was determined as 34.2 nM.
The result for `CC(C)CC1(c2ccccc2)NC(=N)N(Cc2cc(C(=O)N3Cc4nccnc4C3)ccn2)C1=O` (stereo not drawn) [Compound 403, 3-{[4-(5,7-dihydro-6H-pyrrolo[3,4-b]pyrazin-6-ylcarbonyl)pyridin-2-yl]methyl}-2-imino-5-(2-methylpropyl)-5-phenylimidazolidin-4-one] reads 54.3 nM; that for `COC(=O)N1CCN(C(=O)c2ccnc(CN3C(=N)NC(c4ccc(F)cc4)(c4ccc(F)cc4)C3=O)c2)CC1` [Compound 404, methyl 4-[(2-{[4,4-bis(4-fluorophenyl)-2-imino-5-oxoimidazolidin-1-yl]methyl}pyridin-4-yl)carbonyl]piperazine-1-carboxylate], 58.6 nM; that for `COC(=O)N1CCN(C(=O)c2ccnc(CN3C(=N)NC(CCC(C)C)(c4ccccc4)C3=O)c2)CC1` (stereo not drawn) [Compound 405, methyl 4-[(2-{[2-imino4-(3-methylbutyl)-5-oxo-4-phenylimidazolidin-1-yl]methyl}pyridin-4-yl)carbonyl]piperazine-1-carboxylate], 81.1 nM.
`Cc1cc(CN2C(=N)NC(c3ccc(F)cc3)(c3ccc(F)cc3)C2=O)cc(C(=O)N2Cc3nccnc3C2)n1` [Compound 406, 3-{[2-(5,7-dihydro-6H-pyrrolo[3,4-b]pyrazin-6-ylcarbonyl)-6-methylpyridin-4-yl]methyl}-5,5-bis(4-fluorophenyl)-2-iminoimidazolidin-4-one]: the IC50 turned out to be 10.6 nM.
Consider `N=C1NC(c2ccccc2)(c2ccccc2)C(=O)N1Cc1cc(C(=O)N2Cc3nccnc3C2)cs1` [Compound 407, 3-{[4-(5,7-dihydro-6H-pyrrolo[3,4-b]pyrazin-6-ylcarbonyl)thiophen-2-yl]methyl}-2-imino-5,5-diphenylimidazolidin-4-one], for which the IC50 stood at 73.8 nM.
The same measure for `N=C1NC(c2ccccc2)(c2ccccc2)C(=O)N1Cc1cc(C(=O)N2Cc3cncnc3C2)cs1` [Compound 408, 3-{[4-(5,7-dihydro-6H-pyrrolo[3,4-d]pyrimidin-6-ylcarbonyl)thiophen-2-yl]methyl}-2-imino-5,5-diphenylimidazolidin-4-one]: 80.5 nM.

Broadly, the IC50 is the concentration at which inhibition is half-maximal.

(Values after patent US20200069691A1, “HETEROCYCLIC COMPOUNDS AS HIV PROTEASE INHIBITORS” (Merck Sharp & Dohme Corp., priority 2016, published 2020).)
